From patent US7029918B2, “Water-soluble derivatives of lipophilic drugs” (Roche Diagnostics Operations, Inc., priority 2002, dated 2006)
Where “and” joins values, the source holds several entries; their conditions need not be identical. Identical values can stand only once.

Key:
[1] = Heat stress stability of urine standard solutions, ABUSCREEN ONLINE Benzodiazepines assay; conditions: for stability in urine by ONLINE assay: up to 4 weeks, 4° C. or 45° C., pH 6.4 or 7.4, 100 to 200 ng/mL
Protocol: (§1) Urine standard solutions were prepared using pooled, filtered, normal human urine containing 0.09 percent sodium azide. […] Each of the drug stock solutions was added analytically to the assigned aliquot of urine pool. Final drug concentrations in the solutions were determined by GC-MS analyses performed at ELSOHLY LABORATORIES (Oxford, MS).
(§2) The stability of the above standard solutions were evaluated using three different analytical technologies: (1) GCIMS (Gas Chromatography/Mass Spectrometry) analysis, (2) ABUSCREEN ONLINE Benzodiazepines Immunoassay, and (3) HPLC (High Pressure Liquid Chromatography) analysis.
The heat stress stability study of the water-soluble derivative 2 was evaluated using ABUSCREEN ONLINE Benzodiazepines assay. […] (in neutral and acidic negative urine pools, 2 concentrations for each urinary pH).

[2] = in water; 'it is believed'
[3] = Heat stress stability of urine standard solutions, GC/MS quantification; type: physicochemical; conditions: for change of concentration in urine: 45° C. and 55° C.
Protocol: as §1, §2
The standard solutions were stored at various temperatures, including 4° C., 45° C. and 55° C., and tested at different time intervals.

[4] = tested on: antibody of ABUSCREEN ONLINE Benzodiazepines assay; conditions: ONLINE immunoassay
From the text: ABUSCREEN ONLINE reagents and Calibration Pack were obtained from ROCHE DIAGNOSTICS CORPORATION, INC. […] ABUSCREEN ONLINE Benzodiazepines assay was run either on a ROCHE MIRA analyzer in a semi-quantitative mode, or using a ROCHE COBAS INTEGRA 700 analyzer in a semi-quantitative mode, according to the I manufacturer's instructions.

[5] = tested on: antibody (competition with benzodiazepine-BSA conjugate 7); assay: Immunochromatographic assay of benzodiazepines (nitrocellulose test strip, competitive); type: binding
Protocol: In the absence of lipophilic drug in a sample being analyzed, the drug conjugate can bind to the antibody, and this binding can be measured. When a the lipophilic drug is present in the sample, the drug competes with the drug conjugate for binding to the antibody. Antibody that is bound to the liphophilic drug no longer contributes to the binding measurement. Lipophilic drug content is determined relative to the values obtained for known concentrations of the standard compound (Adler, F. L. J. Immunol. 1971, 106(6):1684–1685. See also Bates, M. Amer. Acad. Forensic Sci. 1991, 37(6):1000).
The benzodiazepine-BSA conjugate was prepared in a similar manner as described in Example 6, but treating with BSA rather than BTG. The product was prepared and stored in 100 mM potassium phosphate as 10 mg/mL solution with 0.05% sodium azide as preservative Example 9-Immunochromatographic assay of benzodiazepines using water-soluble derivative 2 as calibrator The immunochromatographic assay was conducted using a nitrocellulose-based test strip as described in detail in U.S. Pat. No. 5,770,458. Mylar backed large pore size nitrocellulose (8–12 micron) was cut into pieces of 15 cm in length and 5 cm in width. A solution of the benzodiazepine-BSA conjugate 7 (about 5 mg/mL) and anti-BSA monoclonal antibody (about 2 mg/mL), both in 50 mM potassium phosphate buffer pH 7.5, were loaded onto IVEK CORP. (North Springfield, Vt.) […] 2000™ system. The solutions were dispensed at the rate 1 μl/cm onto nitrocellulose at a distance of 2 cm and 1 cm, respectively, from the 15 cm side. The nitrocellulose segments were allowed to dry for about 30 min. at 37° C., and then were blocked with polyvinyl alcohol (PVA, m.w. 13,000–23,000) solution in 20 mM TRIS, pH 8, for 30 min. at room temperature. The segments were then rinsed in water and dried.
The same nitrocellulose as described above in this example was used as a separate membrane for microparticles (top membrane). The construction of the two-membrane strip configuration was carried out as described in detail in U.S. Pat. No. 5,770,458. In brief, the top membrane was blocked and washed using the same protocol as the main membrane. The top membrane containing the appropriate amount of microparticles was laminated to the main membrane with ADHESIVE […] INC. (Glen Rock, Pa.) adhesive mylar and the segment was then cut into 5 mm wide strips. The sample pad and sink pad were placed respectively at the beginning and terminal ends of the strips. Cellulose from BIORAD LABORATORIES (Hercules, Calif.) (gel blotter) was used for both the sample receiving pads and the sink pads. The calibration curve was obtained by adding solutions containing predetermined amounts of drug in urine to the sample receiving pad or by dipping the sample receiving pad of the membrane strip in the solutions. Various predetermined concentrations of water-soluble derivative 2 were used to prepare the standards in urine. The signal strength is determined as follows: 2.5 to 3.0=dark blue, 1.5 to 2.0-medium blue, 1.0=light blue, 0.5=barely perceivable color and 0=colorless. When the strip read colorless, a complete inhibition is achieved and the sample is indicated to contain 200 ng/mL of the drug used to prepare the “standards”.

[6] = Protocol: Water-soluble derivative 2 was spiked in certified drug-free human urine 100 ng/mL) and the resulting solution was divided into two portions: one was stored at 4° C. and the other stressed at 45° C. After three months, both solutions were analyzed for the concentration of water-soluble derivative 2 by the following procedure. A volume (between 2.5 to 10 mL) of the urine solutions was passed through an affinity column packed with anti-benzodiazepines antiserum-coated latex beads (0.8 μm). After it was washed with a 50 mM, pH 6.1 MES (4-morpholineethane […]) buffer, the column was eluted with methanol. The methanol eluant was then evaporated and the residue reconstituted in 404 μL of MES buffer. […] The column was eluted with a gradient generated between a 50 mM, pH 6.8 ammonium acetate buffer and acetonitrile (Table C).
[7] = cited from earlier work
[8] = urine pH 6.4, higher-concentration standard
[9] = urine pH 6.4, lower-concentration standard
[10] = urine pH 7.4, higher-concentration standard
[11] = urine pH 7.4, lower-concentration standard
[12] = urine, scale 2.5 to 3.0 dark blue, 1.5 to 2.0 medium blue, 1.0 light blue, 0.5 barely perceivable, 0 colorless

For O=C1CN=C(c2ccccc2F)c2cc(Cl)ccc2N1CCNS(=O)(=O)O [Water-soluble derivative 2, 1-(2-Sulfamidoethyl)-2′-fluoro-7-chloro-1,4-benzodiazepine], the “stability in urine by ONLINE assay” value [1] was “stable for the evaluated time and temperatures”, the “stability in urine by ONLINE assay” value ([1]; listed as water-soluble benzodiazepine reference standard 2) was “does not change significantly” and the “ONLINE assay concentration, 4° C., Day 0” value [1, 8] was 191 ng/mL. The “ONLINE assay concentration, 4° C., Week 2” value [1, 8] was 191 ng/mL, the “ONLINE assay concentration, 4° C., Week 4” value [1, 8] was 193 ng/mL and the “ONLINE assay concentration, 45° C., Day 0” value [1, 8] was 191 ng/mL. The “ONLINE assay concentration, 45° C., Week 2” value [1, 8] was 200 ng/mL, the “ONLINE assay concentration, 45° C., Week 4” value [1, 8] was 209 ng/mL and the “ONLINE assay concentration, 4° C., Day 0” value [1, 9] was 99 ng/mL. For the same compound, the “ONLINE assay concentration, 4° C., Week 2” value [1, 9] was 97 ng/mL, the “ONLINE assay concentration, 4° C., Week 4” value [1, 9] was 106 ng/mL and the “ONLINE assay concentration, 45° C., Day 0” value [1, 9] was 99 ng/mL. For the same compound, the “ONLINE assay concentration, 45° C., Week 2” value [1, 9] was 101 ng/mL, the “ONLINE assay concentration, 45° C., Week 4” value [1, 9] was 109 ng/mL and the “ONLINE assay concentration, 4° C., Day 0” value [1, 10] was 188 ng/mL. The “ONLINE assay concentration, 4° C., Week 2” value [1, 10] was 183 ng/mL, the “ONLINE assay concentration, 4° C., Week 4” value [1, 10] was 189 ng/mL and the “ONLINE assay concentration, 45° C., Day 0” value [1, 10] was 188 ng/mL. The “ONLINE assay concentration, 45° C., Week 2” value [1, 10] was 179 ng/mL, the “ONLINE assay concentration, 45° C., Week 4” value [1, 10] was 192 ng/mL and the “ONLINE assay concentration, 4° C., Day 0” value [1, 11] was 102 ng/mL. For the same compound, the “ONLINE assay concentration, 4° C., Week 2” value [1, 11] was 92 ng/mL, the “ONLINE assay concentration, 4° C., Week 4” value [1, 11] was 99 ng/mL and the “ONLINE assay concentration, 45° C., Day 0” value [1, 11] was 102 ng/mL. The “ONLINE assay concentration, 45° C., Week 2” value [1, 11] was 95 ng/mL, the “ONLINE assay concentration, 45° C., Week 4” value [1, 11] was 98 ng/mL and the aqueous solubility [2] was “more than 2 mg/mL”. The “GC/MS concentration, Day 0” value ([3]; human urine standard solution, starting concentration) was “Day 0 = 171 ng/mL”, the “GC/MS value at 5 months, 4° C.” value ([3]; human urine, 5 months, 4° C., Day 0 = 171 ng/mL) was 147 ng/mL and the “GC/MS value at 5 months, 45° C.” value ([3]; human urine, 5 months, 45° C., Day 0 = 171 ng/mL) was 150 ng/mL. The “GC/MS value at 5 months, 55° C.” value ([3]; human urine, 5 months, 55° C., Day 0 = 171 ng/mL) was 145 ng/mL, the “GC/MS concentration after storage at 4° C.” value ([3]; human urine, two weeks, 4° C.) was 191 ng/mL and the “GC/MS concentration after storage at 45° C.” value ([3]; human urine, two weeks, 45° C.) was 178 ng/mL. The “GC/MS concentration after storage at 55° C.” value ([3]; human urine, two weeks, 55° C.) was 185 ng/mL, the “change of concentration in urine” value ([3]; two weeks, 4° C.) was “stable at all temperatures” and the “change of concentration in urine” value ([3]; two weeks, 4° C., listed as water-soluble benzodiazepine reference standard 2) was “does not change significantly”. The “cross-reactivity to both Oxazepam and Nordiazepam” value [4] was “approximately 70%”, the “cross-reactivity to both Oxazepam and Nordiazepam” value ([5]; immunochromatographic assay) was “approximately 70%” and the “signal strength at 50 ng/mL standard” value [5, 12] was 2.50 and 2.75. The “signal strength at 100 ng/mL standard” value [5, 12] was 2.00, the “signal strength at 200 ng/mL standard” value [5, 12] was 0 and the “signal strength at 400 ng/mL standard” value [5, 12] was 0. The “relative stability of the stressed sample (single extraction and HPLC runs)” value ([6]; human urine, three months, 45° C. vs 4° C., duplicate runs) was 96% and 106%, the “relative stability of the stressed sample (average)” value ([6]; human urine, three months, area count at 45° C. divided by that at 4° C., average of duplicates) was 101% and the “stability at 45° C. relative to 4° C.” value ([6]; urine, storage as long as 3 months) was “no decrease in stability”.
In the case of O=C1CN=C(c2ccccc2)c2cc(Cl)ccc2N1 [Nordiazepam, reference compound], the “ONLINE assay concentration, 4° C., Day 0” value [1, 10] is reported as 271 ng/mL, the “ONLINE assay concentration, 4° C., Week 2” value [1, 10] is reported as 272 ng/mL and the “ONLINE assay concentration, 4° C., Week 4” value [1, 10] is reported as 252 ng/mL. The “ONLINE assay concentration, 45° C., Day 0” value [1, 10] was 271 ng/mL, the “ONLINE assay concentration, 4° C., Day 0” value [1, 11] was 139 ng/mL and the “ONLINE assay concentration, 4° C., Week 2” value [1, 11] was 140 ng/mL. For the same compound, the “ONLINE assay concentration, 4° C., Week 4” value [1, 11] was 134 ng/mL and the “ONLINE assay concentration, 45° C., Day 0” value [1, 11] was 139 ng/mL.
For CCN(CC)CCN1C(=O)CN=C(c2ccccc2F)c2cc(Cl)ccc21 [Fluazepam], the “solubility in water” value [7] is given as “only slight solubility in water”.
